{
  "source": "paper PMC10120551",
  "about": "“Novel Glu-based pyrazolo[3,4-d]pyrimidine analogues: design, synthesis and biological evaluation as DHFR and TS dual inhibitors” (Journal of Enzyme Inhibition and Medicinal Chemistry, 2023)",
  "key": {"PC-3": {"test_system": "PC-3", "assay": "cells", "details": "Homo sapiens"}, "A498 [1]": {"test_system": "A498", "details": "A498, Renal cancer; five-dose 0.01–100 µM"}, "SK-MEL-2 [2]": {"test_system": "SK-MEL-2", "details": "SK-MEL-2, Melanoma; five-dose 0.01–100 µM"}, "A498 [3]": {"test_system": "A498", "assay": "cells", "details": "Homo sapiens"}, "KM12 [4]": {"test_system": "KM12", "details": "KM12, Colon cancer; five-dose 0.01–100 µM"}, "MDA-MB-435": {"test_system": "MDA-MB-435", "assay": "cells", "details": "Homo sapiens"}, "KM12 [5]": {"test_system": "KM12", "assay": "cells", "details": "Homo sapiens"}, "HOP-92": {"test_system": "HOP-92", "assay": "cells", "details": "Homo sapiens"}, "HCC-2998": {"test_system": "HCC-2998", "assay": "cells", "details": "Homo sapiens"}, "OVCAR-5 [6]": {"test_system": "OVCAR-5", "assay": "cells", "details": "Homo sapiens"}, "MDA-MB-231/ATCC": {"test_system": "MDA-MB-231/ATCC", "details": "Breast cancer, five-dose 0.01–100 µM"}, "OVCAR-3": {"test_system": "OVCAR-3", "details": "OVCAR-3, Ovarian cancer; five-dose 0.01–100 µM"}, "K-562": {"test_system": "K-562", "assay": "cells", "details": "Homo sapiens"}, "SF-539": {"test_system": "SF-539", "assay": "cells", "details": "Homo sapiens"}, "SR": {"test_system": "SR", "details": "Leukaemia, five-dose 0.01–100 µM"}, "CAKI-1 [7]": {"test_system": "CAKI-1", "details": "CAKI-1, Renal cancer; five-dose 0.01–100 µM"}, "SK-MEL-2 [8]": {"test_system": "SK-MEL-2", "assay": "cells", "details": "Homo sapiens"}, "HL-60(TB) [9]": {"test_system": "HL-60(TB)", "assay": "cells", "details": "Homo sapiens"}, "SF-295": {"test_system": "SF-295", "assay": "cells", "details": "Homo sapiens"}, "MOLT-4": {"test_system": "MOLT-4", "details": "MOLT-4, Leukaemia; five-dose 0.01–100 µM"}, "HL-60(TB) [10]": {"test_system": "HL-60(TB)", "details": "Leukaemia, five-dose 0.01–100 µM"}, "UO-31": {"test_system": "UO-31", "assay": "cells", "details": "Homo sapiens"}, "[11]": {"test_system": "full panel of 59 cancer cells", "assay": "NCI one-dose screen (SRB), full panel", "type": "cell-based, human", "details": "Homo sapiens; mean over full panel of 59 cell lines; 10 µM single dose; read-out: MGI% (mean growth inhibition percentage)", "procedure": "The growth percentage (G%) and cell viability of the herein target compounds 6a–l, 7a,b, and 9a–c have been screened towards a full panel of 59 cancer cells at NCI’s Developmental Therapeutics Program (NCI-DTP, MD, USA)[21]. The submitted analogues were initially examined for preliminary in vitro anticancer activity using sulforhodamine B (SRB) assay at 10 µM as a single dose to evaluate cell growth and viability according to the procedure of Drug Evaluation Branch[22]^,[23].\nDifferent types of tumours – colon, NSCLC, leukaemia, CNS, renal, breast, ovarian, melanoma, and prostate cancers – were investigated as a full panel of 59 cell lines, and the attained results are cited in Figures S1–S17 (see Supplementary Material) where the value recorded is the growth relative to that of both the negative control and zero-time number of cells in which both growth inhibition (GI%; 0–100%) and lethality (L%; 0–100%) percentages can be identified. The growth inhibition means percentages (MGI%) for the examined target analogues towards the different treated 59 cancer cells were presented in Figure 2.\nThe designed analogues were submitted to NCI-Chemotherapeutic Agents Repository (MD, USA) for screening on a panel of 59 cancer cell lines. All compounds were initially examined at 10 µM concentration (Single-Dose Screen), and then the most efficient analogue 6i was screened further at 0.01–100 µM (Five-Dose Screen). The screening procedures were performed according to NCI-Drug Evaluation Branch protocol using SRB protein assay, as described previously[21]^,[66]. The experimental procedures were detailed in the Supporting Information."}, "CAKI-1 [12]": {"test_system": "CAKI-1", "assay": "cells", "details": "Homo sapiens"}, "MDA-MB-468": {"test_system": "MDA-MB-468", "details": "MDA-MB-468, Breast cancer; five-dose 0.01–100 µM"}, "UACC-62": {"test_system": "UACC-62", "assay": "cells", "details": "Homo sapiens"}, "DU-145": {"test_system": "DU-145", "assay": "cells", "details": "Homo sapiens"}, "OVCAR-5 [13]": {"test_system": "OVCAR-5", "details": "OVCAR-5, Ovarian cancer; five-dose 0.01–100 µM"}, "HCT-116": {"test_system": "HCT-116", "details": "HCT-116, Colon cancer; five-dose 0.01–100 µM"}, "NCI-H522": {"test_system": "NCI-H522", "assay": "cells", "details": "Homo sapiens"}, "IGROV1": {"test_system": "IGROV1", "assay": "cells", "details": "Homo sapiens"}, "CCRF-CEM": {"test_system": "CCRF-CEM", "assay": "cells", "details": "Homo sapiens"}},
  "data": [
    {"compound": "CCOC(=O)CC[C@H](NC(=O)c1ccc(NC(=O)Cn2cnc3c(c(C)nn3-c3ccc(Br)cc3)c2=O)cc1)C(=O)OCC", "note": "[Compound 6i]", "values": [
      {"measurement": "GI50", "setting": "PC-3; PC-3", "value": 5.79, "unit": "µM"},
      {"measurement": "CC50", "setting": "PC-3; PC-3, read-out: LC50", "value": 47.7, "unit": "µM"},
      {"measurement": "TGI", "setting": "A498 [1]", "value": 48.1, "unit": "µM"},
      {"measurement": "TGI", "setting": "SK-MEL-2 [2]", "value": 89.1, "unit": "µM"},
      {"measurement": "GI50", "setting": "A498 [3]; A498", "value": 24.9, "unit": "µM"},
      {"measurement": "CC50", "setting": "A498 [3]; A498, read-out: LC50", "value": 93, "unit": "µM"},
      {"measurement": "TGI", "setting": "KM12 [4]", "value": ">100", "unit": "µM"},
      {"measurement": "GI50", "setting": "MDA-MB-435; MDA-MB-435", "value": 12.2, "unit": "µM"},
      {"measurement": "CC50", "setting": "MDA-MB-435; MDA-MB-435, read-out: LC50", "value": 96.1, "unit": "µM"},
      {"measurement": "GI50", "setting": "KM12 [5]; KM12", "value": 16.1, "unit": "µM"},
      {"measurement": "CC50", "setting": "KM12 [5]; KM12, read-out: LC50", "value": "> 100", "unit": "µM"},
      {"measurement": "GI50", "setting": "HOP-92; HOP-92", "value": 6.01, "unit": "µM"},
      {"measurement": "CC50", "setting": "HOP-92; HOP-92, read-out: LC50", "value": 66.2, "unit": "µM"},
      {"measurement": "GI50", "setting": "HCC-2998; HCC 2998", "value": 35.1, "unit": "µM"},
      {"measurement": "CC50", "setting": "HCC-2998; HCC 2998, read-out: LC50", "value": "> 100", "unit": "µM"},
      {"measurement": "GI50", "setting": "OVCAR-5 [6]; OVCAR-5", "value": 20.2, "unit": "µM"},
      {"measurement": "CC50", "setting": "OVCAR-5 [6]; OVCAR-5, read-out: LC50", "value": "> 100", "unit": "µM"},
      {"measurement": "TGI", "setting": "MDA-MB-231/ATCC", "value": 26.8, "unit": "µM"},
      {"measurement": "TGI", "setting": "OVCAR-3", "value": 61.3, "unit": "µM"},
      {"measurement": "GI50", "setting": "K-562; K562", "value": "> 100", "unit": "µM"},
      {"measurement": "CC50", "setting": "K-562; K562, read-out: LC50", "value": "> 100", "unit": "µM"},
      {"measurement": "GI50", "setting": "SF-539; SF-539", "value": 14.8, "unit": "µM"},
      {"measurement": "CC50", "setting": "SF-539; SF-539, read-out: LC50", "value": 73.6, "unit": "µM"},
      {"measurement": "TGI", "setting": "SR", "value": ">100", "unit": "µM"},
      {"measurement": "TGI", "setting": "CAKI-1 [7]", "value": 22.1, "unit": "µM"},
      {"measurement": "GI50", "setting": "SK-MEL-2 [8]; SK-MEL-2", "value": 27.6, "unit": "µM"},
      {"measurement": "CC50", "setting": "SK-MEL-2 [8]; SK-MEL-2, read-out: LC50", "value": "> 100", "unit": "µM"},
      {"measurement": "GI50", "setting": "HL-60(TB) [9]; HL-60", "value": "> 100", "unit": "µM"},
      {"measurement": "CC50", "setting": "HL-60(TB) [9]; HL-60, read-out: LC50", "value": "> 100", "unit": "µM"},
      {"measurement": "GI50", "setting": "SF-295; SF-295", "value": 14.2, "unit": "µM"},
      {"measurement": "CC50", "setting": "SF-295; SF-295, read-out: LC50", "value": 71.6, "unit": "µM"},
      {"measurement": "TGI", "setting": "MOLT-4", "value": ">100", "unit": "µM"},
      {"measurement": "TGI", "setting": "HL-60(TB) [10]", "value": ">100", "unit": "µM"},
      {"measurement": "GI50", "setting": "UO-31; UO-31", "value": 18.1, "unit": "µM"},
      {"measurement": "CC50", "setting": "UO-31; UO-31, read-out: LC50", "value": "> 100", "unit": "µM"},
      {"measurement": "inhibition at 10 µM", "setting": "[11]", "value": 62, "unit": "%"},
      {"measurement": "GI50", "setting": "CAKI-1 [12]; CAKI-1", "value": 10.4, "unit": "µM"},
      {"measurement": "CC50", "setting": "CAKI-1 [12]; CAKI-1, read-out: LC50", "value": 47, "unit": "µM"},
      {"measurement": "TGI", "setting": "MDA-MB-468", "value": 51.3, "unit": "µM"},
      {"measurement": "GI50", "setting": "UACC-62; UACC-62", "value": 13.3, "unit": "µM"},
      {"measurement": "CC50", "setting": "UACC-62; UACC-62, read-out: LC50", "value": 77.8, "unit": "µM"},
      {"measurement": "GI50", "setting": "DU-145; DU-145", "value": 7.47, "unit": "µM"},
      {"measurement": "CC50", "setting": "DU-145; DU-145, read-out: LC50", "value": "> 100", "unit": "µM"},
      {"measurement": "TGI", "setting": "OVCAR-5 [13]", "value": 56.3, "unit": "µM"},
      {"measurement": "TGI", "setting": "HCT-116", "value": ">100", "unit": "µM"},
      {"measurement": "GI50", "setting": "NCI-H522; NCI-H522", "value": 17.1, "unit": "µM"},
      {"measurement": "CC50", "setting": "NCI-H522; NCI-H522, read-out: LC50", "value": 85, "unit": "µM"},
      {"measurement": "GI50", "setting": "IGROV1; IGROV-1", "value": 23.9, "unit": "µM"},
      {"measurement": "CC50", "setting": "IGROV1; IGROV-1, read-out: LC50", "value": "> 100", "unit": "µM"},
      {"measurement": "GI50", "setting": "CCRF-CEM", "value": 14.5, "unit": "µM"},
      {"measurement": "CC50", "setting": "CCRF-CEM; read-out: LC50", "value": "> 100", "unit": "µM"}
    ]}
  ]
}
